Laboratory results reported in ChEMBL document CHEMBL5154835, “Design, synthesis and biological evaluation of sulfonamides inhibitors of XPO1 displaying activity against multiple myeloma cells” (Eur J Med Chem, 2022).
pIC50: −log10 of the molar value.

System: MM1.S
Assay: Antiproliferative activity against human MM1.S cells assessed as inhibition of cell growth incubated for 4 hrs by CCK-8 assay
Format: functional, cell-based

SMILES | pIC50
NC(=O)/C(=C/n1cnc(-c2cc(C(F)(F)F)cc(C(F)(F)F)c2)n1)c1ccc(F)nc1F | 6.18
NC(=O)/C(=C/n1cnc(-c2cc(C(F)(F)F)cc(C(F)(F)F)c2)n1)c1ccc(C(F)(F)F)nc1 | 6.44
COc1ccc(/C(=C\n2cnc(-c3cc(C(F)(F)F)cc(C(F)(F)F)c3)n2)C(N)=O)c(F)c1F | 5.92
CS(=O)(=O)Nc1cc(C#N)cc(/C(=C\n2cnc(-c3cc(C(F)(F)F)cc(C(F)(F)F)c3)n2)C(N)=O)c1 | 6.08
COc1c(F)cc(/C(=C\n2cnc(-c3cc(C(F)(F)F)cc(C(F)(F)F)c3)n2)C(N)=O)cc1F | 5.46
CS(=O)(=O)Nc1ccc(/C(=C\n2cnc(-c3cc(C(F)(F)F)cc(C(F)(F)F)c3)n2)C(N)=O)cc1C(F)(F)F | 6.07
NC(=O)/C(=C/n1cnc(-c2cc(C(F)(F)F)cc(C(F)(F)F)c2)n1)c1cccnc1 | 6.71
CN(c1ccc(/C(=C\n2cnc(-c3cc(C(F)(F)F)cc(C(F)(F)F)c3)n2)C(N)=O)cc1)S(C)(=O)=O | 6.35
NC(=O)/C(=C/n1cnc(-c2cc(C(F)(F)F)cc(C(F)(F)F)c2)n1)c1ccc(NS(=O)(=O)C2CCCCC2)cc1 | 5.90
NC(=O)/C(=C/n1cc(F)c(-c2cc(C(F)(F)F)cc(C(F)(F)F)c2)n1)c1cncnc1 | 6.15
CN(C)C(=O)/C(=C/n1cnc(-c2cc(C(F)(F)F)cc(C(F)(F)F)c2)n1)c1ccc(NS(C)(=O)=O)cc1 | 5.05
NC(=O)/C(=C/n1cnc(-c2cc(C(F)(F)F)cc(C(F)(F)F)c2)n1)c1cccc(F)c1F | 5.28
NC(=O)/C(=C/n1cc(Cl)c(-c2cc(C(F)(F)F)cc(C(F)(F)F)c2)n1)c1cncnc1 | 5.65
